Data reported in PMC3138742 (PLoS ONE, 2011).

Experiments:
[1] = molecular target: Abl (Homo sapiens, UniProt P00519); details: cell-free
Method: (§1) The tyrosine kinase activities were determined using enzyme-linked immunosorbant assay (ELISA). The serine/threonine kinase activities were detected by Caliper Mobility Shift Assay on EZ Reader (Caliper Life Sciences, MA) according to the instruction.
(§2) The kinase domain of EGFR, ErbB-2, IGF1R, VEGFR2, FGFR1, PDGFRα, c-Src, c-Met, RON, c-Kit, EphA2 and EphB2 were expressed using the Bac-to-Bac^TM baculovirus expression system (Invitrogen, Carlsbad, CA, USA) and purified on Ni-NTA columns (QIAGEN Inc., Valencia, CA, USA). VEGFR1, PDGFRβ and c-Abl were purchased from Upstate Biotechnology Inc. (Charlottesville, Virginia, USA). […] EGF was purchased from R&D, Minneapolis, […]. Poly(Glu-Tyr)(4:1), the substrate of tyrosine kinase, was from Sigma-Aldrich Corp. St. Louis, MO, USA.
(§3) The tyrosine kinase activities were determined in 96-well ELISA plates (Corning, NY, USA) precoated with 20 μg/mL Poly (Glu,Tyr)4:1. First, 80 μL of 5 μM ATP solution diluted in kinase reaction buffer (50 mM HEPES pH 7.4, 20 mM MgCl2, 0.1 mM MnCl2, 0.2 mM Na3VO4, 1 mM DTT) was added to each well. […] Subsequently, the kinase reaction was initiated by the addition of purified tyrosine kinase proteins diluted in 10 μL of kinase reaction buffer solution. Experiments at each concentration were performed in duplicate. After incubation for 60 min at 37 °C, the plate was washed three times with phosphate buffered saline (PBS) containing 0.1% Tween 20 (T-PBS). Next, 100 μL anti-phosphotyrosine antibody (PY99, 1:500 dilution) diluted in T-PBS containing 5 mg/mL BSA was added. After 30 min incubation at 37 °C, the plate was washed three times as before. Horseradish peroxidase-conjugated goat anti-mouse IgG (100 μL) diluted 1:2000 in T-PBS containing 5 mg/ml BSA was added. The plate was reincubated at 37 °C for 30 min, and then washed with PBS.

[2] = molecular target: EGFR (Homo sapiens, UniProt P00533); details: cell-free, means ± SD
Method: as §1, §2, §3

[3] = molecular target: EphA2 (Homo sapiens, UniProt P29317); details: EphA2, cell-free
Method: as §1, §2, §3

[4] = molecular target: ErbB2 (Homo sapiens, UniProt P04626); details: ErbB2, cell-free; means ± SD
Method: as §1, §2, §3

[5] = molecular target: Flt-1 (Homo sapiens, UniProt P17948); details: Flt-1, cell-free
Method: as §1, §2, §3

[6] = molecular target: IGF1R (Homo sapiens, UniProt P08069); details: cell-free
Method: as §1, §2, §3

[7] = molecular target: JAK2 (Homo sapiens, UniProt O60674); details: JAK2, cell-free
Method: as §1, §2, §3

[8] = molecular target: KDR (Homo sapiens, UniProt P35968); details: cell-free
Method: as §1, §2, §3

[9] = molecular target: PDGFRα (Homo sapiens, UniProt P16234); details: cell-free
Method: as §1, §2, §3

[10] = molecular target: PDGFRβ (Homo sapiens, UniProt P09619); details: cell-free
Method: as §1, §2, §3

[11] = molecular target: SYK (Homo sapiens, UniProt P43405); details: cell-free
Method: as §1, §2, §3

[12] = molecular target: Tie2 (Homo sapiens, UniProt Q02763); details: Tie2, cell-free
Method: as §1, §2, §3

[13] = molecular target: AKT1 (Homo sapiens, UniProt P31749); details: AKT1, cell-free
Method: as §1, §2

[14] = molecular target: AUR A (Homo sapiens, UniProt O14965); details: cell-free
Method: as §1, §2

[15] = molecular target: CDK2 (Homo sapiens, UniProt P24941); details: CDK2, cell-free
Method: as §1, §2

[16] = molecular target: GSK3b (Homo sapiens, UniProt P49841); details: cell-free
Method: as §1, §2

[17] = molecular target: PKCb2 (Homo sapiens, UniProt P05771); details: PKCb2, cell-free
Method: as §1, §2

[18] = molecular target: Pim2 (Homo sapiens, UniProt Q9P1W9); details: Pim2, cell-free
Method: as §1, §2

[19] = molecular target: p70S6K (Homo sapiens, UniProt P23443); details: cell-free
Method: as §1, §2

[20] = tested on: EGFR phosphorylation in NIH3T3-EGFR T790M/L858R cells; assay: Western blot of EGFR phosphorylation; type: cell-based; details: 6 h, immunoblotting
Method: Cell viability was determined using sulforhodamine B assay. IC50 values were determined based on the results of three independent experiments. […] Whole-cell lysates were assayed for total EGFR and phosphorylation of EGFR by immunoblotting. […] Cell viability was determined using sulforhodamine B assay.

[21] = tested on: SK-OV-3 cells; assay: Anchorage-independent growth on soft agar; type: cell-based, human; details: two weeks
Method: The culture was maintained at 37°C in a 5% CO2 atmosphere for two weeks. The average colony number was calculated and colonies were photographed. Columns, mean of triplicate samples; bars, SE. Significant differences were evaluated using the Student's test (*P<0.05; ** P<0.01). (TIF) Click here for additional data file. Anchorage-independent cell transformation assay. Cell transformation was detected in SK-OV-3 and A549 cells, respectively. […] The culture were maintained in a 37°C, 5% CO2 incubator for 1-2 weeks, and the cell colonies were scored using a microscope and the Image-Pro PLUS computer software program (Media Cybernetics, Silver Spring, MD). Data are shown as means ± SD of values from triplicate experiments and the asterisk (*) indicates a significant (*P<0.05, ** P<0.01) decrease in colony number compared to untreated control.

Tie2, sequence (Q02763 23-1124): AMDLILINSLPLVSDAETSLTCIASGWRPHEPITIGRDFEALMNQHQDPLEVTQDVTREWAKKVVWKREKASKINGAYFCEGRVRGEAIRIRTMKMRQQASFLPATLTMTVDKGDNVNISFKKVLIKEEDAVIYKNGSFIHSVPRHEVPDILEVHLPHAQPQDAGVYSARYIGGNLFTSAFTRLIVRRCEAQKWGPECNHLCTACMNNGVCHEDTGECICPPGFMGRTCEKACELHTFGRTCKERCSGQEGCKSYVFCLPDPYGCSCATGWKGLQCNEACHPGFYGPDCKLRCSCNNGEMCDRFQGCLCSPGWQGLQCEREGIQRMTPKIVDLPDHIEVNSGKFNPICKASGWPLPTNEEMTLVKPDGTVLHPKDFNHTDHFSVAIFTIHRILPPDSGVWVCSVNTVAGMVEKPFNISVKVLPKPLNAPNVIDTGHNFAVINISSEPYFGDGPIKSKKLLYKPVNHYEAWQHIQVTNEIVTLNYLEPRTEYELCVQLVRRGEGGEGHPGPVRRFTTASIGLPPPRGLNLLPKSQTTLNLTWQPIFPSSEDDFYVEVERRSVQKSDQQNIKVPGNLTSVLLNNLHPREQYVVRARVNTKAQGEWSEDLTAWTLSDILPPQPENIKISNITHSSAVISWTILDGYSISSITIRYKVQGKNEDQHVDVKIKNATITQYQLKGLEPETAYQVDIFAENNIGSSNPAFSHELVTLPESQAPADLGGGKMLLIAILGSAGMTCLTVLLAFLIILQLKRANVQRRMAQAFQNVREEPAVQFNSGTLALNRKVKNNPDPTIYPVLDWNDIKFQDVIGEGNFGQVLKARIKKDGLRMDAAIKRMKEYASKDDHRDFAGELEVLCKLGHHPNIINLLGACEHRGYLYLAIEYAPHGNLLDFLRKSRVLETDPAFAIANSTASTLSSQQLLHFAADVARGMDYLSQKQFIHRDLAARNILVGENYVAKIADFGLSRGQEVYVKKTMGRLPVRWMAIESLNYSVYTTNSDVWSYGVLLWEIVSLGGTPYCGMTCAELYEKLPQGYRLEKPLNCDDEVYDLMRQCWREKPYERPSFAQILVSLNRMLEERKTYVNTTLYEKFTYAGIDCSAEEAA
Abl, sequence (P00519 whole entry, species assumed): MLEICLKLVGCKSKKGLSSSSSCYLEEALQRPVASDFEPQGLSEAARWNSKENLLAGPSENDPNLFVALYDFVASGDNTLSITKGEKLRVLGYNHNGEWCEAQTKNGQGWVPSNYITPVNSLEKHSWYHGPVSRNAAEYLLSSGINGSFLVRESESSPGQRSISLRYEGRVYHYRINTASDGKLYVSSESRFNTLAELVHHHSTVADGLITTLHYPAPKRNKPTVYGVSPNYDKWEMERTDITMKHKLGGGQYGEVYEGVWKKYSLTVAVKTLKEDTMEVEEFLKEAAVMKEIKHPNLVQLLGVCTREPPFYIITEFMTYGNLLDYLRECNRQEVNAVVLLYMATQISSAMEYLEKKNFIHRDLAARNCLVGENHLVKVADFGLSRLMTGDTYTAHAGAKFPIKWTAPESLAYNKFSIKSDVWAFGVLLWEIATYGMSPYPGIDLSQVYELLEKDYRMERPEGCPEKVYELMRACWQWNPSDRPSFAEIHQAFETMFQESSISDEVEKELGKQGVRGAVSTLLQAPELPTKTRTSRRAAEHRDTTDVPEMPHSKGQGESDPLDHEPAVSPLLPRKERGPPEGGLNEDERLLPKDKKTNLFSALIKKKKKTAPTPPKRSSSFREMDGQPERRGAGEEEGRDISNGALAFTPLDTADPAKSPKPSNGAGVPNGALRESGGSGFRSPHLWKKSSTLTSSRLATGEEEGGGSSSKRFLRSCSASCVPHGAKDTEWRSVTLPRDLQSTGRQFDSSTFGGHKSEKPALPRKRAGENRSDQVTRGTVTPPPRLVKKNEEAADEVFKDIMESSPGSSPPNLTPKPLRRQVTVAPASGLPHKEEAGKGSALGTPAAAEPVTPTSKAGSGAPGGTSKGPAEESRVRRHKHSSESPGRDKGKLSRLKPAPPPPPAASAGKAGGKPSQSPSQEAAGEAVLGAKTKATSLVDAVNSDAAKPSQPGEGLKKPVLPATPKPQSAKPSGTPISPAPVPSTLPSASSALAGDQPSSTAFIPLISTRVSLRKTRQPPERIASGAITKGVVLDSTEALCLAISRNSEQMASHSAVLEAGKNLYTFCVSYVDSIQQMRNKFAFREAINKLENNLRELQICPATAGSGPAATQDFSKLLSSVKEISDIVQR
EGFR, sequence (P00533 712-979 limits assumed): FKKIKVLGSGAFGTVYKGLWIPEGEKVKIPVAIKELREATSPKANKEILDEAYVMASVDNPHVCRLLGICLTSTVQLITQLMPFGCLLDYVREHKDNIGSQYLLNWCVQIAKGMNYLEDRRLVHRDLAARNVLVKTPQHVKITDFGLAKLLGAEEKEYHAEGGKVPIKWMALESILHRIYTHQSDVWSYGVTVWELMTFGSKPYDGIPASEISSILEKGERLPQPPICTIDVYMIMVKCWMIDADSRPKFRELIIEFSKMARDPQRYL
AKT1, sequence (P31749 whole entry): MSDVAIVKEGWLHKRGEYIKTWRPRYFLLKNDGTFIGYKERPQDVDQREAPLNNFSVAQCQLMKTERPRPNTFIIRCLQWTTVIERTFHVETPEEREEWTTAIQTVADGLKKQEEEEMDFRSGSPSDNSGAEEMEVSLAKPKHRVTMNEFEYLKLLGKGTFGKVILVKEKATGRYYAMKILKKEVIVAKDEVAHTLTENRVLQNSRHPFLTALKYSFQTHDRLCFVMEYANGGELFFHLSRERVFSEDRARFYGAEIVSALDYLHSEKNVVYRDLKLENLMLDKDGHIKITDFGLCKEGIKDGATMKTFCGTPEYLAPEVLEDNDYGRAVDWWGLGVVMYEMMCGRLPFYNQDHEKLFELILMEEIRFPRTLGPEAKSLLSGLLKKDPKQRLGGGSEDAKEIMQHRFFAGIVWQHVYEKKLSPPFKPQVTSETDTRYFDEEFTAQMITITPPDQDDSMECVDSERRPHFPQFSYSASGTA
PDGFRβ, sequence (P09619 33-1106): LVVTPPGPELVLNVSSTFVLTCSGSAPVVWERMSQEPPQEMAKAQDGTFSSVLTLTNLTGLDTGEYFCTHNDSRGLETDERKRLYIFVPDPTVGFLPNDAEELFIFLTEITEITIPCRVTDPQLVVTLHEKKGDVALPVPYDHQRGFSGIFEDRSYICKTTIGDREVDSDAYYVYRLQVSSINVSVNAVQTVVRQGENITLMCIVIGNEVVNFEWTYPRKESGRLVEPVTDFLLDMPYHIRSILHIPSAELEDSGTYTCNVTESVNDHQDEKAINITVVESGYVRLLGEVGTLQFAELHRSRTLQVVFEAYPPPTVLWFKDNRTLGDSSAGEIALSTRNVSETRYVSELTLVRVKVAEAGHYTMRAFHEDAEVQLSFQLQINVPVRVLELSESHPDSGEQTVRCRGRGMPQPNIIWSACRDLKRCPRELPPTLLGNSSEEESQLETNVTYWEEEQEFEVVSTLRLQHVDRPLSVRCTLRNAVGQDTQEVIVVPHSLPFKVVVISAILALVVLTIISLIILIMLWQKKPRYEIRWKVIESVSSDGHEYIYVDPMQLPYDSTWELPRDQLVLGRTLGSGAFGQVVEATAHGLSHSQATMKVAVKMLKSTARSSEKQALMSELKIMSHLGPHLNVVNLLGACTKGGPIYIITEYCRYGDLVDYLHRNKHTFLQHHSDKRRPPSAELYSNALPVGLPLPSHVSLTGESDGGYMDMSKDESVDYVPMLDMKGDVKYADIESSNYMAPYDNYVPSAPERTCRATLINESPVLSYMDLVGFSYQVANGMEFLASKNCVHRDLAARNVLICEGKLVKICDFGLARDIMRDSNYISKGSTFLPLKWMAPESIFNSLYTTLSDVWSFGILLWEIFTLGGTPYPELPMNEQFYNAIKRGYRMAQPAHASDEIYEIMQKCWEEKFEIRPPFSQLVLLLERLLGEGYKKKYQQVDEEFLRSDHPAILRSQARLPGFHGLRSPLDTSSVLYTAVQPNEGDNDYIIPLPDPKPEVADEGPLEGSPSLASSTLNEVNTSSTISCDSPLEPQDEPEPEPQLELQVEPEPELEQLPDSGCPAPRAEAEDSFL
EphA2, sequence (P29317 613-875 limits assumed): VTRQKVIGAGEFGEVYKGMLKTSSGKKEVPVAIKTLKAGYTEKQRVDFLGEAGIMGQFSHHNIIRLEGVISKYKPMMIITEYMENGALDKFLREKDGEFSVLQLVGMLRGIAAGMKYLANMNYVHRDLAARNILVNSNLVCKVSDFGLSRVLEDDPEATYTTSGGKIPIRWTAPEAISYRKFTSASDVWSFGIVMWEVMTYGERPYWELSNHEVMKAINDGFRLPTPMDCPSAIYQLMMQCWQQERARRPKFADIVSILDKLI
PKCb2, sequence (P05771 1-673 isoform P05771-2): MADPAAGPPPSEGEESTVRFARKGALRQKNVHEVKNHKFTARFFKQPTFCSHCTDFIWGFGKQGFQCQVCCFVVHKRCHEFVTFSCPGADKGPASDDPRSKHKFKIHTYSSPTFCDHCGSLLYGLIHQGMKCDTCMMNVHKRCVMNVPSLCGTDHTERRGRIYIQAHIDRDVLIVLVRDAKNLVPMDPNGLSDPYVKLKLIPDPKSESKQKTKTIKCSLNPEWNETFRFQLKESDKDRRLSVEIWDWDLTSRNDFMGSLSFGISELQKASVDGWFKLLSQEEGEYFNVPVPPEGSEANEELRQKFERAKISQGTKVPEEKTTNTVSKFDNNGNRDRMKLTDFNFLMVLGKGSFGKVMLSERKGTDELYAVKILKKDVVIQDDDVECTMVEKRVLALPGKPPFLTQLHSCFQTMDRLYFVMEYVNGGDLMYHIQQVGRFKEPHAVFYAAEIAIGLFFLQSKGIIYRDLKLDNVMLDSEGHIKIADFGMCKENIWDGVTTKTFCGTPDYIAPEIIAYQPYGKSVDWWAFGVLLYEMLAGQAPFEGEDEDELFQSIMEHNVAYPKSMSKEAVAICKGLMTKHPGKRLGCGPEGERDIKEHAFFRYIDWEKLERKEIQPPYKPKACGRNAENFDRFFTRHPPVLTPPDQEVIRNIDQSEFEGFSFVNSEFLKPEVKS

## C=CC(=O)Nc1ccc2ncnc(Nc3ccc(OCc4cccc(F)c4)c(Cl)c3)c2c1 [AST1306]
[1]
  IC50: > 10 µM
[2]
  IC50: 0.0005 ± 0.0002 µM
[3]
  IC50: > 10 µM
[4]
  IC50: 0.003 ± 0.0015 µM
[5]
  IC50: > 10 µM
[6]
  IC50: > 10 µM
[7]
  IC50: > 10 µM
[8]
  IC50: > 10 µM
[9]
  IC50: > 10 µM
[10]
  IC50: > 10 µM
[11]
  IC50: > 10 µM
[12]
  IC50: > 10 µM
[13]
  IC50: > 10 µM
[14]
  IC50: > 10 µM
[15]
  IC50: > 10 µM
[16]
  IC50: > 10 µM
[17]
  IC50: > 10 µM
[18]
  IC50: > 10 µM
[19]
  IC50: > 10 µM
[20]
  inhibition of EGFR phosphorylation: effectively inhibited EGFR phosphorylation
[21]
  anchorage-independent growth on soft agar: dramatically inhibit the growth
